Measured values published in ChEMBL document CHEMBL5696442, “Discovery of type II inhibitors of TGFβ-activated kinase 1 (TAK1) and mitogen-activated protein kinase kinase kinase kinase 2 (MAP4K2)” (J Med Chem, 2015).

Legend:
[1] = tested on: Tyrosine-protein kinase ABL1 (Homo sapiens), P00519 [F317L]; assay: Inhibition of nonphosphorylated ABL1 F317L mutant (unknown origin) at 1 uM by Ambit Kinomescan binding assay relative to control
[2] = biological target: Ribosomal protein S6 kinase alpha-6 (Homo sapiens) (UniProt Q9UK32); assay: Inhibition of C-terminal RSK4 kinase domain 2 (unknown origin) at 1 uM by Ambit Kinomescan binding assay relative to control
[3] = biological target: STE20/SPS1-related proline-alanine-rich protein kinase (Homo sapiens) (UniProt Q9UEW8); assay: Inhibition of STK39 (unknown origin) at 1 uM by Ambit Kinomescan binding assay relative to control
[4] = biological target: T1, Serine/threonine-protein kinase TBK1 (Homo sapiens) (UniProt Q9UHD2); assay: Inhibition of TBK1 Lys2 labeling site in human A-375 cells at 5 uM by KiNativ Profiling analysis relative to control; type: cell-based
T1 sequence (whole entry): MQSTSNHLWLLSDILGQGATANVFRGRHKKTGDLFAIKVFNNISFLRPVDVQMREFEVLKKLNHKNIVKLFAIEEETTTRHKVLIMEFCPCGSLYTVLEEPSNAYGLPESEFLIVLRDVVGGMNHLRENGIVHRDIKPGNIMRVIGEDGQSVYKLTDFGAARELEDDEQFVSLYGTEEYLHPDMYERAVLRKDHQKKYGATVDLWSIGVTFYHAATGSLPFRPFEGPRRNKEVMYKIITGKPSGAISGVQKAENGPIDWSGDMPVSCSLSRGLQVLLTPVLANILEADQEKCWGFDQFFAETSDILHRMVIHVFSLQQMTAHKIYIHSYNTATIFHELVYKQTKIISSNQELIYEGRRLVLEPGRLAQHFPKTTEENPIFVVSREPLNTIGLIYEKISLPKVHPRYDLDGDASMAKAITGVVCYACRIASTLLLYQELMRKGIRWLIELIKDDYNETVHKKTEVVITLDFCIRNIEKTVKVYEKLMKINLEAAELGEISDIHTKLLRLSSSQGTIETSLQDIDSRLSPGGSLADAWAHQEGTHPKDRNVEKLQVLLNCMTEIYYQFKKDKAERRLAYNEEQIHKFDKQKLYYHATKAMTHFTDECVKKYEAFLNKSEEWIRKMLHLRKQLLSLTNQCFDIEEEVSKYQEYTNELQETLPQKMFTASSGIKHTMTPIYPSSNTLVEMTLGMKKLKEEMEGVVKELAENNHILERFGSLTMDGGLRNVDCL

[5] = biological target: Muscle, skeletal receptor tyrosine-protein kinase (Homo sapiens) (UniProt O15146); assay: Inhibition of MUSK (unknown origin) at 1 uM by Ambit Kinomescan binding assay relative to control; values are per cent of control
[6] = biological target: Serine/threonine-protein kinase OSR1 (Homo sapiens) (UniProt O95747); assay: Inhibition of OSR1 (unknown origin) at 1 uM by Ambit Kinomescan binding assay relative to control; values are per cent of control
[7] = biological target: Non-receptor tyrosine-protein kinase TYK2 (Homo sapiens) (UniProt P29597); assay: Inhibition of TYK2 domain2 ACT labeling site in human A-375 cells at 0.5 uM by KiNativ Profiling analysis relative to control; type: cell-based
[8] = biological target: Rho-associated protein kinase 1 (Homo sapiens) (UniProt Q13464); assay: Inhibition of ROCK1 Lys2 labeling site in human A-375 cells at 0.05 uM by KiNativ Profiling analysis relative to control; type: cell-based
[9] = biological target: Mitogen-activated protein kinase kinase kinase 20 (Homo sapiens, UniProt Q9NYL2); assay: Inhibition of ZAK K1 labeling site in human Huh-7 cells at 10 uM by KiNativ Profiling analysis relative to control; type: cell-based
[10] = biological target: T2, Dual specificity mitogen-activated protein kinase kinase 6 (Homo sapiens) (UniProt P52564); assay: Inhibition of MAP2K6 K2 labeling site in human Huh-7 cells at 10 uM by KiNativ Profiling analysis relative to control; type: cell-based
T2 sequence (whole entry): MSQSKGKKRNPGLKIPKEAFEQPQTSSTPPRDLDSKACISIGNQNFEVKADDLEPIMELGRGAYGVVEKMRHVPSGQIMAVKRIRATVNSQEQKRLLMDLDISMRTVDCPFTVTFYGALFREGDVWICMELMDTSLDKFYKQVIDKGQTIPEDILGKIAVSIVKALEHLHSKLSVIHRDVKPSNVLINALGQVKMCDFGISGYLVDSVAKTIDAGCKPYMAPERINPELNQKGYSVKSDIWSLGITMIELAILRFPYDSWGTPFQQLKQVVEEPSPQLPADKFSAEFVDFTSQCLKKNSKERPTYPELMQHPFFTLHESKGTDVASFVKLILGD

[11] = biological target: T3, Aurora kinase A (Homo sapiens) (UniProt O14965); assay: Inhibition of AurA K2 labeling site harbouring DIKPENLLLGSAGELK in human Huh-7 cells at 1 uM by KiNativ Profiling analysis relative to control; type: cell-based
T3 sequence (whole entry): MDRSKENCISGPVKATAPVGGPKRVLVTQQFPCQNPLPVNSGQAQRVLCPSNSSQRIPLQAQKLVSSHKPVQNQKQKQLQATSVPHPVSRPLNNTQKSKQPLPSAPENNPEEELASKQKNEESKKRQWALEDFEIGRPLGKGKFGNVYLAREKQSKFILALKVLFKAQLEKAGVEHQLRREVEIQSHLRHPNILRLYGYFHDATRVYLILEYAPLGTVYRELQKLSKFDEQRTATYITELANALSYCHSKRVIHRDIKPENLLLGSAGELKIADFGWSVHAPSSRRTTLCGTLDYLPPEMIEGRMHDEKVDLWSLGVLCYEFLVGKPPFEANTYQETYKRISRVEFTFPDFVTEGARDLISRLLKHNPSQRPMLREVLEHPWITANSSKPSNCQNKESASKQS

[12] = biological target: Serine/threonine-protein kinase 26 (Homo sapiens) (UniProt Q9P289); assay: Inhibition of MST4 ATP labeling site in human Huh-7 cells at 1 uM by KiNativ Profiling analysis relative to control; type: cell-based
[13] = biological target: NT-3 growth factor receptor (Homo sapiens) (UniProt Q16288); assay: Inhibition of TRKC (unknown origin) at 10 uM by Ambit Kinomescan binding assay relative to control; values are per cent of control
[14] = biological target: Fibroblast growth factor receptor 1 (Homo sapiens) (UniProt P11362); assay: Inhibition of FGFR1 (unknown origin) at 10 uM by Ambit Kinomescan binding assay relative to control; values are per cent of control
[15] = biological target: Mitogen-activated protein kinase kinase kinase 4 (Homo sapiens) (UniProt Q9Y6R4); assay: Inhibition of MAP3K4 Lys2 labeling site in human Huh-7 cell lysate at 1 uM by KiNativ Profiling analysis relative to control; type: subcellular
[16] = biological target: Ribosomal protein S6 kinase alpha-4 (Homo sapiens) (UniProt O75676); assay: Inhibition of MSK2 domain1 ATP labeling site in human Huh-7 cell lysate at 1 uM by KiNativ Profiling analysis relative to control; type: subcellular

Chain of Tyrosine-protein kinase ABL1 (Homo sapiens), P00519 [F317L] (P00519 whole entry F317L, the tested form may be a part): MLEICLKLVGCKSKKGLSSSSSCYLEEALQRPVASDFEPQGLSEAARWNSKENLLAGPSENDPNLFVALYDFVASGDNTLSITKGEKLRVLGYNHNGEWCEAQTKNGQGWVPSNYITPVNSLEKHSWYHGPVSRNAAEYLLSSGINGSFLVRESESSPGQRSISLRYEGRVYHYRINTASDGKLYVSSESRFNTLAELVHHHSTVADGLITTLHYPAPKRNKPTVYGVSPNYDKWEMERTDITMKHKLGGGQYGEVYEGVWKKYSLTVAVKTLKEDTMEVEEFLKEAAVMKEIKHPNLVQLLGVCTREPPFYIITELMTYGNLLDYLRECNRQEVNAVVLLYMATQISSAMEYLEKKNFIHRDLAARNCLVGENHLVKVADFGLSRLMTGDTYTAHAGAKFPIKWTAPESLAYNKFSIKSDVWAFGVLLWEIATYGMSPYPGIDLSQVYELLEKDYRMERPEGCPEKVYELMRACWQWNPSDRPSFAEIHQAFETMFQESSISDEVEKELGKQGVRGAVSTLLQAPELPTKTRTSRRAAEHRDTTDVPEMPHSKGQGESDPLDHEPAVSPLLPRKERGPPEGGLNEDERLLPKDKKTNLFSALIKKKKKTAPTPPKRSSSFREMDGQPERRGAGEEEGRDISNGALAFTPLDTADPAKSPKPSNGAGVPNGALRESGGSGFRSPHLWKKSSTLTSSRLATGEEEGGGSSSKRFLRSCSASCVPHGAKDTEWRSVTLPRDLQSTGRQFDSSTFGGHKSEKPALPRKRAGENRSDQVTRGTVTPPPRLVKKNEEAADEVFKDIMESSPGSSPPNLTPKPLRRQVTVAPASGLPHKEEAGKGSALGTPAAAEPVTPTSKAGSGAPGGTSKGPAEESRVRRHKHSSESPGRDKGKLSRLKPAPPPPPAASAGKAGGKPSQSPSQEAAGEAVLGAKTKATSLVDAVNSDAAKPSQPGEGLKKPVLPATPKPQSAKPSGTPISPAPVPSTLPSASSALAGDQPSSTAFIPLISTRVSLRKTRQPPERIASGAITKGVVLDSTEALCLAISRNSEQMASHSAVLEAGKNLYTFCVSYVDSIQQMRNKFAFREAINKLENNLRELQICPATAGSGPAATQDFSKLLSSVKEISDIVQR
Chain of Non-receptor tyrosine-protein kinase TYK2 (Homo sapiens) (P29597 whole entry, the tested form may be a part): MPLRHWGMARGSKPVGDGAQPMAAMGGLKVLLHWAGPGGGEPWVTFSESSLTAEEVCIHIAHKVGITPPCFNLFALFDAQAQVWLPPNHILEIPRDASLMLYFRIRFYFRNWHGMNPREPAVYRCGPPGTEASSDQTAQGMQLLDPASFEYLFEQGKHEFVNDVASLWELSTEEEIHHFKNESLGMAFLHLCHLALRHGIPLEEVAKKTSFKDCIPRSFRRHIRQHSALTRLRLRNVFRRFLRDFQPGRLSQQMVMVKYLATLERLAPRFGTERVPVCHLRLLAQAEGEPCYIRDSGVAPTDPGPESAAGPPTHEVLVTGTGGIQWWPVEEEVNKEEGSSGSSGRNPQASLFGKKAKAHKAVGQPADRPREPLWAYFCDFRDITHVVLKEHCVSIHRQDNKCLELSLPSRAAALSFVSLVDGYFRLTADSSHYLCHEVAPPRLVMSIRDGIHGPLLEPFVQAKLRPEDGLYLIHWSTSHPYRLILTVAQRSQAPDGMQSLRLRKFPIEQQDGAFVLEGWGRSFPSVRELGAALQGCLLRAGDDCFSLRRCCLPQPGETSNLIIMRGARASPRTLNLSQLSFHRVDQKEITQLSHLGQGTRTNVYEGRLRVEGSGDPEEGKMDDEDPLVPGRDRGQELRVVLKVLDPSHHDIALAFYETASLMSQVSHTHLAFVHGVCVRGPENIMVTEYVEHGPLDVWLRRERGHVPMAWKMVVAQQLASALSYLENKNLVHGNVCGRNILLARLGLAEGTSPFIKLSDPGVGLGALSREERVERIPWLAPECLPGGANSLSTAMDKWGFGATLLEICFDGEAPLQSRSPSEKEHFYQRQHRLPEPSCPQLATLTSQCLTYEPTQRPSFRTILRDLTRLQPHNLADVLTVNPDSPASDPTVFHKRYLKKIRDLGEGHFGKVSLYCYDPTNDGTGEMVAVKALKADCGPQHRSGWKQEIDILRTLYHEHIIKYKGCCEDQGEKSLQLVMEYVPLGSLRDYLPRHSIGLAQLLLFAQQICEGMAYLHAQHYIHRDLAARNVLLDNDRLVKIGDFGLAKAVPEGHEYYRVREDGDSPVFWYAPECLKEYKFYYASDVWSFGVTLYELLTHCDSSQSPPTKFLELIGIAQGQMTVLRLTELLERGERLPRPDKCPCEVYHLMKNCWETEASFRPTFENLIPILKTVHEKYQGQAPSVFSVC
Chain of NT-3 growth factor receptor (Homo sapiens) (Q16288 32-839 limits assumed): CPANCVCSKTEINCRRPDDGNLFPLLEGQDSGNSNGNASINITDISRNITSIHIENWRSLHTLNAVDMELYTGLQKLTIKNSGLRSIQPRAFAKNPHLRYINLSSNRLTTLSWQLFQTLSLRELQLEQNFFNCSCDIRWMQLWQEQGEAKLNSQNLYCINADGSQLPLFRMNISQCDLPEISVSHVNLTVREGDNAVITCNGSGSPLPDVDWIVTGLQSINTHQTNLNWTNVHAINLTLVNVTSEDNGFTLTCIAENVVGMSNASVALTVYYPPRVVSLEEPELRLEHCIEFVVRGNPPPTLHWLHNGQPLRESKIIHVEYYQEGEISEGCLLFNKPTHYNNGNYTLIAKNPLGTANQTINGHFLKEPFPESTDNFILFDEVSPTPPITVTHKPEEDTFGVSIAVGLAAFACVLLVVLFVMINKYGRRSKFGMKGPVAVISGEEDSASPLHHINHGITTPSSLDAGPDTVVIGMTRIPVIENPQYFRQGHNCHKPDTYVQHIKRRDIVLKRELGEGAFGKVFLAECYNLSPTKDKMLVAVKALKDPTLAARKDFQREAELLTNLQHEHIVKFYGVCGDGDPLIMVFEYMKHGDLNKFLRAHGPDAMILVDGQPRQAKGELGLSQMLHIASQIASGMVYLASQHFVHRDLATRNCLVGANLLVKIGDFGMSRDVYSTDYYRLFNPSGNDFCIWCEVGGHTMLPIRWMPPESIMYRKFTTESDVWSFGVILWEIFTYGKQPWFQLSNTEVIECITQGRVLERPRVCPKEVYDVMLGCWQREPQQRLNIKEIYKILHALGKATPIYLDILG
Chain of Mitogen-activated protein kinase kinase kinase 20 (Q9NYL2 2-800 limits assumed): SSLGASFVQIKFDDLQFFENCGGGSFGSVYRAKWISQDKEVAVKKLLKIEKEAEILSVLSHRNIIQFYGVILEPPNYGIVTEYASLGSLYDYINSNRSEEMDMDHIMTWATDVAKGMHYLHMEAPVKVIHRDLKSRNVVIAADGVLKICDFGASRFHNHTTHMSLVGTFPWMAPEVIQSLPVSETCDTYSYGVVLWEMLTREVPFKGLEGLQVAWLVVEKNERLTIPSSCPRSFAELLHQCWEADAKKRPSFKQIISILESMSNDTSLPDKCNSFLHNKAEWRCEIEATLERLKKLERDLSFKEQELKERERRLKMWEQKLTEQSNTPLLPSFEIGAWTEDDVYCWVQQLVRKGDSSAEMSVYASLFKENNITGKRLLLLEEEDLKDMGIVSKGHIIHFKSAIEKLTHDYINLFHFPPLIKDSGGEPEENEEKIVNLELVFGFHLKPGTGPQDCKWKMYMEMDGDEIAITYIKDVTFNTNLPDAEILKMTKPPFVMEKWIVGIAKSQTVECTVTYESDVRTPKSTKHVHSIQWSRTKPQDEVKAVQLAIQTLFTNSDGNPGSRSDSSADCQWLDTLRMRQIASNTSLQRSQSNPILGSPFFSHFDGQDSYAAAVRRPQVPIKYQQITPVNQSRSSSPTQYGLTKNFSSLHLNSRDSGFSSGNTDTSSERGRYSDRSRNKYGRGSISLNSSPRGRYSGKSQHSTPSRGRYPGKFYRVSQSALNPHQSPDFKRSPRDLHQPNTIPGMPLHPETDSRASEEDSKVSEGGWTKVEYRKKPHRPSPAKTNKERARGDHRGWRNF
Chain of Fibroblast growth factor receptor 1 (Homo sapiens) (P11362 22-822 limits assumed): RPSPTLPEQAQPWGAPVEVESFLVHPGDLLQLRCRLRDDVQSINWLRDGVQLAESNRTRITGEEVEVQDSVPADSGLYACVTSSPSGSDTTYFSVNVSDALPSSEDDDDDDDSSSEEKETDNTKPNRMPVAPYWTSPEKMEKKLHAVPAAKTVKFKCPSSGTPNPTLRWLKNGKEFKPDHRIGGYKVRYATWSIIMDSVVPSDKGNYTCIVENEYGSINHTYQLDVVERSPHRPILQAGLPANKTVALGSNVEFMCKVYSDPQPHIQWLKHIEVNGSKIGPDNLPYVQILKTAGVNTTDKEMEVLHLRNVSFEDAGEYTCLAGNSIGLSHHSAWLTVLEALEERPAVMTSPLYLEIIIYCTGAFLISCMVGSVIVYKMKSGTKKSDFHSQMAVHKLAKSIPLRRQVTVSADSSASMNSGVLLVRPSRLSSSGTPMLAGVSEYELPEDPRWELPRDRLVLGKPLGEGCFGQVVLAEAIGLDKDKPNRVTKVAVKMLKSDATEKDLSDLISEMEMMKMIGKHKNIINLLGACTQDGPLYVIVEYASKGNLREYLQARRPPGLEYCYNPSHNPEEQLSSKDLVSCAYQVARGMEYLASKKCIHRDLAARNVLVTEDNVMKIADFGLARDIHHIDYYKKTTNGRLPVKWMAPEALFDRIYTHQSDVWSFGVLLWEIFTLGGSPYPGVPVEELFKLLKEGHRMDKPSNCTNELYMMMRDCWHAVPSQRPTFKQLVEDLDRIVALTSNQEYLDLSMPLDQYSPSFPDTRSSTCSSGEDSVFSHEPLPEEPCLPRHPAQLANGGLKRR

CCN1CCN(Cc2ccc(NC(=O)c3ccc(C)c(/C=C/c4cnc5[nH]ccc5c4OC)c3)cc2C(F)(F)F)CC1
inhibition [1]: 0%
inhibition [2]: 50%
inhibition [3]: 70%
inhibition [4]: 37.6%
residual activity [5]: 2%
residual activity [6]: 100%

CCN1CCN(Cc2ccc(NC(=O)c3ccc(C)c(Oc4ccnc5[nH]ccc45)c3)cc2C(F)(F)F)CC1
inhibition [7]: -3.5%
inhibition [8]: 6%
inhibition [9]: 83.4%
inhibition [10]: 19.3%
inhibition [11]: 0.9%
inhibition [12]: 18%
residual activity [13]: 3.8%
% of control [14]: 1.7%

CNc1cc(Oc2cc(C(=O)Nc3cc(N4CCN(C)CC4)cc(C(F)(F)F)c3)ccc2C)ncn1
inhibition [15]: 0.5%
inhibition [16]: -8%
